In PMC2248166, “Quantitative peptide binding motifs for 19 human and mouse MHC class I molecules derived using positional scanning combinatorial peptide libraries” (Immunome Research, 2008):

Assays:
[1] = molecular target: HLA B*5801 (Homo sapiens, UniProt P01889, A329T/C349S/D201E/D98Y/E176V/E187L/E204Q/E69T/G107R/I218V/I90N/K202T/L105A/L119I/N104I/N87E/Q89R/Q94S/R106L/R155S/R180L/R86G/S101N/S121R/S35A/S48A/T118I/V127L/V306I/V36M/Y140S/Y91M); format: binding
[2] = molecular target: HLA B*1503 (Homo sapiens, UniProt P01889, A329T/A93T/A95T/C349S/D201E/D98Y/E187L/E204Q/K202T/N87E/Q94N/R155S/R180L/S121R/S35A/V306I/V36M/Y140S/Y91S); test: biochemical; format: binding
[3] = molecular target: HLA A*3201 (Homo sapiens, UniProt P04439, A270S/D101S/D185E/E176V/E277Q/F133L/G103R/G107R/G231S/H175R/I121M/I218V/I322F/K168Q/L105A/L300P/L318F/M331R/P208A/P217A/Q94H/R106L/R138Q/S129P/T104I/T323A/T345S/V100E/V321M/V358M); test: biochemical; format: binding
[4] = molecular target: HLA B*5802 (Homo sapiens, UniProt P01889, A329T/C349S/D201E/D98Y/E176V/E187L/E204Q/E69T/G107R/I218V/I90N/K202T/L105A/N104I/N87E/Q89R/Q94S/R106L/R155S/R180L/R86G/S101N/S121W/S35A/S48A/V127L/V306I/V36M/Y140S/Y91M); format: binding
[5] = molecular target: HLA A*3001 (Homo sapiens, UniProt P04439, D140H/D185E/E176W/F33S/G80R/H175R/K168Q/R138E/R41S); test: biochemical; format: binding
[6] = molecular target: HLA A*6802 (Homo sapiens, UniProt P04439, A269V/D140Y/D185E/E176V/E277Q/E87N/F33Y/G231S/I121R/I166T/I218V/L180W/L300P/L318F/N151K/P208A/P217A/Q86R/R138H/R169H/S129P/T345S/V36M); format: binding
[7] = molecular target: HLA B*0801 (Homo sapiens, UniProt P01889, A93T/A95T/D138N/E176V/E187T/K202T/Q94N/R180D/S35A/V36M/Y33D/Y91F); test: biochemical; format: binding
[8] = molecular target: H-2 K^k (Mus musculus, UniProt P04223); format: binding
[9] = molecular target: HLA B*0702 (Homo sapiens, UniProt P01889); format: binding; conditions: positional scanning combinatorial 9-mer library; normalized to 1.0 for the best residue at each position
[10] = molecular target: HLA B*1501 (Homo sapiens, UniProt P01889, A329T/A93T/A95T/C349S/D201E/D98Y/E187L/E204Q/E69M/E70A/K202T/N87E/Q94N/R155S/R180W/S121R/S35A/S48A/V306I/V36M/Y140S/Y91S); test: biochemical; format: binding
[11] = molecular target: HLA B*5401 (Homo sapiens, UniProt P01889, A329T/C349S/D138N/D201E/E176V/E187T/E204Q/E69G/I76V/K202T/L119W/R155S/R180L/S121T/S35A/S48A/V127L/V306I/V36M/Y140L); format: binding
[12] = molecular target: HLA B*5301 (Homo sapiens, UniProt P01889, A329T/A93T/A95T/C349S/D201E/D98Y/E176V/E187L/E204Q/E69T/G107R/I218V/K202T/L105A/L119I/N104I/Q94N/R106L/R155S/R180L/S101N/S121R/S35A/S48A/T118I/V127L/V306I/V36M/Y140S/Y91F); format: binding
[13] = molecular target: H-2 D^d (Mus musculus, UniProt P01900); format: binding
[14] = molecular target: HLA A*0201 (Homo sapiens, UniProt P04439, D140Y/D185E/D98H/E176V/E277Q/G131W/G231S/I119V/I121R/I166T/I218V/L300P/L318F/N151K/N90K/P208A/P217A/Q86G/Q94H/R138H/R169H/T345S); conditions: positional scanning combinatorial 9-mer library; normalized to 1.0 for the best residue at each position
[15] = molecular target: HLA B*2705 (Homo sapiens, UniProt P01889, D138H/D201E/E176V/E204Q/G107R/H137Y/K202T/N104T/N87E/Q56L/Q94K/R106L/R155S/R180L/S101D/S121N/S48T/Y140D/Y33H/Y91C); format: binding; conditions: positional scanning combinatorial 9-mer library; normalized to 1.0 for the best residue at each position
[16] = molecular target: H-2 D^b (Mus musculus, UniProt P01899); format: binding
[17] = molecular target: HLA B*5101 (Homo sapiens, UniProt P01889, A329T/A93T/A95T/C349S/D138N/D201E/D98Y/E187L/E204Q/E69T/G107R/I218V/K202T/L105A/L119W/N104I/Q94N/R106L/R155S/R180L/S101N/S121T/S35A/S48A/V306I/V36M/Y195H/Y91F); format: binding
[18] = molecular target: HLA B*3501 (Homo sapiens, UniProt P01889, A329T/A93T/A95T/C349S/D201E/D98Y/E176V/E187L/E204Q/E69T/I218V/K202T/L119I/Q94N/R155S/R180L/S121R/S35A/S48A/T118I/V127L/V306I/V36M/Y140S/Y91F); format: binding

H-2 D^d, sequence (P01900 whole entry, looked up): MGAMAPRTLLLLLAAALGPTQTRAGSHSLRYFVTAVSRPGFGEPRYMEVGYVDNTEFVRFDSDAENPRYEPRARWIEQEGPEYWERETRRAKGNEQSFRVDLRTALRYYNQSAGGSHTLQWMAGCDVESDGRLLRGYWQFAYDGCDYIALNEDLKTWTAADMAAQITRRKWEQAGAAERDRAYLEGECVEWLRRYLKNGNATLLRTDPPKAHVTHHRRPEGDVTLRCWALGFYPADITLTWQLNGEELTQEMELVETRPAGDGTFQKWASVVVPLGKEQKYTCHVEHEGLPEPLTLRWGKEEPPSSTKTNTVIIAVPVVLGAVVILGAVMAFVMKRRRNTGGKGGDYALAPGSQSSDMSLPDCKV
H-2 D^b, sequence (P01887 21-119): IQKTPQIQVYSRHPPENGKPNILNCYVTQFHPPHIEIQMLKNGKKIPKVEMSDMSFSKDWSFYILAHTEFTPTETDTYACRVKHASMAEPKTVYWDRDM
H-2 D^b, sequence (P01899 25-362): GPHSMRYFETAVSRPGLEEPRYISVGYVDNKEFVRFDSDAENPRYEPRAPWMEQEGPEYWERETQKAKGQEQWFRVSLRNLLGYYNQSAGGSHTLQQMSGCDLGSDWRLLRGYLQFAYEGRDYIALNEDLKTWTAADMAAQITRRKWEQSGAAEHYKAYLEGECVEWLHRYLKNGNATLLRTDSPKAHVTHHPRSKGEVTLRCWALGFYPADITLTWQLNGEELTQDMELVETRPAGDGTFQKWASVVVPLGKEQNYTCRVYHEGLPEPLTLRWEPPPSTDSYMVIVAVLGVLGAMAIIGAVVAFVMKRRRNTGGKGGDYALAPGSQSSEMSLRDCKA
H-2 K^k, sequence (P01887 21-119): as the sequence (P01887 21-119) above
H-2 K^k, sequence (P04223 22-369): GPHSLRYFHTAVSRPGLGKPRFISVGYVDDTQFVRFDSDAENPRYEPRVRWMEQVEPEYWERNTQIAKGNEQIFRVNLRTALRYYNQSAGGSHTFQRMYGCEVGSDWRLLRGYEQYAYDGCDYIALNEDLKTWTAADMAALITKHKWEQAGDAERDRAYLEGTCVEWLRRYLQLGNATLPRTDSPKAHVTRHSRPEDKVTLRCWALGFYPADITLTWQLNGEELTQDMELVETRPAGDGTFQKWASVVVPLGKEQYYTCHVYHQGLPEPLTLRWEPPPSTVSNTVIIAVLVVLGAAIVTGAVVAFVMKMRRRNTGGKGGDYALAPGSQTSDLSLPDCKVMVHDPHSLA

| Sequence | Normalized average relative binding affinity (ARB), HLA B*5801 [1] | Normalized average relative binding affinity (ARB), HLA B*1503 [2] | Normalized average relative binding affinity (ARB), HLA A*3201 [3] | Normalized average relative binding affinity (ARB), HLA B*5802 [4] | Normalized average relative binding affinity (ARB), HLA A*3001 [5] | Normalized average relative binding affinity (ARB), HLA A*6802 [6] | Normalized average relative binding affinity (ARB), HLA B*0801 [7] | Normalized average relative binding affinity (ARB), H-2 Kk [8] | Normalized average relative binding affinity (ARB), HLA B*0702 [9] | Normalized average relative binding affinity (ARB), HLA B*1501 [10] | Normalized average relative binding affinity (ARB), HLA B*5401 [11] | Normalized average relative binding affinity (ARB), HLA B*5301 [12] | Normalized average relative binding affinity (ARB), H-2 Dd [13] | Normalized average relative binding affinity (ARB), HLA A*0201 [14] | Normalized average relative binding affinity (ARB), HLA B*2705 [15] | Normalized average relative binding affinity (ARB), H-2 Db [16] | Normalized average relative binding affinity (ARB), HLA B*5101 [17] | Normalized average relative binding affinity (ARB), HLA B*3501 [18] |
| --- | --- | --- | --- | --- | --- | --- | --- | --- | --- | --- | --- | --- | --- | --- | --- | --- | --- | --- |
| XXYXXXXXX [3064.0060] | 0.34 | 0.44 | 1.0 | 0.72 | 0.016 | 0.26 | 0.13 | 0.52 | 0.061 | 0.60 | 0.11 | 0.078 | 0.0028 | 0.88 | 0.40 | 0.24 | 0.38 | 0.29 |
| XYXXXXXXX [3064.0040] | 0.029 | 0.017 | 0.032 | 0.030 | 0.46 | 0.017 | 0.066 | 0.0099 | 0.0050 | 0.028 | 0.0039 | 0.0053 | 0.013 | 0.0078 | 0.0026 | 0.071 | 0.053 | 0.012 |
| YXXXXXXXX [3064.0020] | 0.20 | 0.34 | 0.12 | 0.46 | 0.064 | 0.24 | 0.24 | 0.63 | 0.25 | 0.33 | 0.12 | 0.36 | 0.41 | 0.11 | 0.85 | 0.57 | 1.0 | 0.19 |
